This is an account of results in patent US9939427B2, “Method for evaluating the scent performance of perfumes or perfume mixtures” (Symrise AG, priority 2013, dated 2018).

Each structure is given as a SMILES string. “Also recorded” adds a separate entry of the source.

What all share (format): cell-based
Assay [1] deals with T1, OR8D2 (Homo sapiens, UniProt Q9GZM6).
T1 construct: specific primers, which amplify the complete open reading frame; expressed in transfected cells; host or cells: HEK293
T1 sequence (Q9GZM6 1-311): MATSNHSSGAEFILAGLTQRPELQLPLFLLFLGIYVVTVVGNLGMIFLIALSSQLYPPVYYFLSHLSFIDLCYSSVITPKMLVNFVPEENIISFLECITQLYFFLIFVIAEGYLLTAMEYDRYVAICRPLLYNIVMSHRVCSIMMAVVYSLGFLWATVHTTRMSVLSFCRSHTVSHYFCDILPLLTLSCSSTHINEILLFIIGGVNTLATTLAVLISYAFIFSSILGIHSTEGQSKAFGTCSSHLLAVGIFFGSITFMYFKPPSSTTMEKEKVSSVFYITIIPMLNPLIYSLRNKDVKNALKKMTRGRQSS
As to the kind of experiment: Ca-imaging of OR8D2-transfected HEK293 cells. Details: key to OR8D2 responded to odorant: ▪: 18 olfactory receptors responded to 32 odorants in related with specific anosmia. On the procedure: (§1) HEK293 cells were cultivated in Petri dishes (Ø35 mm) as previously described (Benbernou et al. 2007). We grow up HEK293 cells in culture medium containing standard DMEM with 10% heat-inactivated fetal bovine serum, 2 mM L-glutamine, 100 units/ml penicillin, and 100 units/ml streptomycin in a humidified atmosphere (37° C., 5% CO2). After 2-3 days, the transfection process was carried out, whereby the cell culture was 70-80% confluent. The calciumphosphate method was applied to transfect DNA plasmid transiently in HEK293 cells in case of Ca-imaging method.
(§2) Calcium cations and phosphate anions created crystal precipitations coupled with DNA which could invade into the cells through endocytosis. Cells were transiently transfected with plasmid DNA which consists of pCI expression vector and PCR-amplified full-length cDNA of olfactory receptors candidates, and also Gα15, RTP1, Myr-Ric8A, HSC70, and m-Cherry as cofactors. The precipitation could be created after 15-20 min, with dropping the transfection solution on HEK293 cells. Before measuring by Ca-imaging cells were incubated 48-60 hours at 370 C, 5% CO2. Cationic liposome-mediated transfection method was applied to transfect DNA plasmid transiently in HANA3A cells in case of CRE-Luciferase and CRE-SEAP assays.
(§3) Calcium imaging of the transfected HEK293 cells was done by using chambers determinate an inverted microscope (Olympus; IX70) using a 10× objective (CPIanFL N Olympus). Fluorescence emission was determined every 4 s by using a CCD camera (Charge Coupled Device, C9100 Hamamatsu). The capillary tube which was responsible to supply odorants was generated closely above the cells. The columns filled with odorants, DMSO and ATP. Odorants were manually monitored to drop each 4-5 s to transfected cells. Solutions with drop wise form spread on HEK293 cells in 35 mm dishes.
(§4) In experiments, Fura-2 Acetoxymethylester (Fura-2/AM) was applied. The non-polar Fura2/AM is fluorescent but not yet calcium-sensitive. Once diffuses into cell plasma, Fura-2/AM is hydrolyzed to Fura-2 which is calcium-sensitive and functions as Ca2+ chelator. Regardless of the presence of calcium, Fura-2 emits at the wavelength of 510 nm. Once Fura-2 binds to free intracellular Ca2+ in cell plasma, its ratio of excitation at wavelengths of 340 nm and 380 nm is changed and correlated to the amount of intracellular Ca2+. According to this feature, the analysis of 340/380 nm excitation ratio for Fura-2 allows to quantify intracellular calcium levels.
(§5) In preparation for Ca-imaging measurements, transfected HEK293 cells were added 3 it Fura2/AM (3 μM) and incubated 30-45 min at 370 C, 5% CO2. After this step, experiments were carried out in a dark condition (Fura-2 is light-sensitive). After the incubation, medium of cell culture was replaced with 2 ml Ringer's solution.
(§6) Odorants were freshly prepared with DMSO as 1 M stocks solutions. Six mixtures (200 μM each chemical) were applied to cells sequentially (20 s each mixture/30 s Ringer). Those ORs tested with single odorants that had generated a response to odorant mixture group previously. Odorants were prepared in 100-200 μM concentration.
(§7) Ringer's solution was used for washing cells between measuring by two different odorants. Positive response was determined by the timing of the response, the strength of the response (more than twofold higher than the noise amplitude of the baseline), and the shape of the response curve (sharp rise in curve with gradual recovery). The typical shape of response curves was established by observing responses to repeated stimulation with 200 μM of odorants. After testing with single odorants at 100 μM, stimulating odorants were often retested at 200 μM concentrations. To confirm the result of every receptor that produced a significant response curves, the experiment was repeated for twelve times. Finally, cells were exposed to ATP (0.25 mM) which could activate P2Y receptor channel and induce Ca2+ influx into cells. […]

In assay [2] the target is T2, OR8B4 (Homo sapiens, UniProt Q96RC9).
T2 construct: specific primers, which amplify the complete open reading frame; expressed in transfected cells; host or cells: HEK293
T2 sequence (Q96RC9 1-309): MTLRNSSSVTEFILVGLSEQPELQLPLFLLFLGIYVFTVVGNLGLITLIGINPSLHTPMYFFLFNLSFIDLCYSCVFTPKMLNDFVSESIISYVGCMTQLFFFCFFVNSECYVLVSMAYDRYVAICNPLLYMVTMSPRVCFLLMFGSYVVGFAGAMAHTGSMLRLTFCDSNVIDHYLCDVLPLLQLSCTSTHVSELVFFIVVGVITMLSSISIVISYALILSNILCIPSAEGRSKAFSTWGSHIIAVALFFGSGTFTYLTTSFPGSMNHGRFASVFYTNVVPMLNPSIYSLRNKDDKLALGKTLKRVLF
Nature of the assay: Ca-imaging of OR8B4-transfected HEK293 cells. Details: key to OR8B4 responded to odorant: ▪: 18 olfactory receptors responded to 32 odorants in related with specific anosmia. Particulars: for Response of OR8B4 to odorant, in words: single odorants 200 μM. The method, then:
as §1, §2, §3, §4, §5, §6, §7

The target of assay [3] is T3, OR10A6 (Homo sapiens, UniProt Q8NH74).
T3 construct: specific primers, which amplify the complete open reading frame; expressed in transfected cells; host or cells: HEK293
T3 sequence (Q8NH74 1-314): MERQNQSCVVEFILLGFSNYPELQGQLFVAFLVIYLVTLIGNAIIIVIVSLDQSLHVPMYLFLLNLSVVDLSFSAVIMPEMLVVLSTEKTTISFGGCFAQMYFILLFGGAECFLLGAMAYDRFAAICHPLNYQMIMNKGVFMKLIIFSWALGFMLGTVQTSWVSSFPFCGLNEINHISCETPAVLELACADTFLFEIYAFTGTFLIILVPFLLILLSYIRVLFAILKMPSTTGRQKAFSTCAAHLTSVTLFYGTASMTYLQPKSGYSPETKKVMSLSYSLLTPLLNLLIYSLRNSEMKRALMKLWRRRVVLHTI
As to the kind of experiment: Ca-imaging of OR10A6-transfected HEK293 cells. Set-up: key to OR10A6 responded to odorant: ▪: 18 olfactory receptors responded to 32 odorants in related with specific anosmia. Particulars: for OR10A6 responded to odorant: HEK293 cells, individual odorant 200 μM, significant response p<0.05. On the procedure: as §1, §2, §3, §4, §5, §6
Ringer's solution was used for washing cells between measuring by two different odorants. Positive response was determined by the timing of the response, the strength of the response (more than twofold higher than the noise amplitude of the baseline), and the shape of the response curve (sharp rise in curve with gradual recovery). […]

The subject of assay [4] is HEK293 cells transfected with all cofactors and pCI plasmids without ORs. Nature of the assay: Ca-imaging of control HEK293 cells without OR. Particulars: odorant 200 μM, three times of measuring (Table 4, FIG. 5). The method, then: as §1, §2, §3, §4, §5, §6, §7
The target of assay [5] is T4, OR1B1 (Homo sapiens, UniProt Q8NGR6).
T4 construct: specific primers, which amplify the complete open reading frame; expressed in transfected cells; host or cells: HEK293
T4 sequence (Q8NGR6 1-317): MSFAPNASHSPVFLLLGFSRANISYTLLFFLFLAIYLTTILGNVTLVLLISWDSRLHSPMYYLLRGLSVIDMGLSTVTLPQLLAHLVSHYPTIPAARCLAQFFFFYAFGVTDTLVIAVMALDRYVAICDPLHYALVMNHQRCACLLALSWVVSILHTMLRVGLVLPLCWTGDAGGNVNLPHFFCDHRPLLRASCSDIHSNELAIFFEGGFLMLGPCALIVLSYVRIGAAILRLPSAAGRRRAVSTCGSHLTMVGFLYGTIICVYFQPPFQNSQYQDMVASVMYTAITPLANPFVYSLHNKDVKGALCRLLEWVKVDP
As to the kind of experiment: Ca-imaging of OR1B1-transfected HEK293 cells. Set-up: key to OR1B1 responded to odorant: ▪: 18 olfactory receptors responded to 32 odorants in related with specific anosmia. Particulars: for Number of cell responses, Experiment (OR1B1): odorant 200 μM, approximately 2000 transfected cells in three times of measuring (Table 4, FIG. 5). On the procedure: as §1, §2, §3, §4, §5, §6, §7

Assay [6] has as its target T5, OR4X2 (Homo sapiens, UniProt Q8NGF9).
T5 construct: specific primers, which amplify the complete open reading frame; expressed in transfected cells; host or cells: HEK293
T5 sequence (Q8NGF9 1-303): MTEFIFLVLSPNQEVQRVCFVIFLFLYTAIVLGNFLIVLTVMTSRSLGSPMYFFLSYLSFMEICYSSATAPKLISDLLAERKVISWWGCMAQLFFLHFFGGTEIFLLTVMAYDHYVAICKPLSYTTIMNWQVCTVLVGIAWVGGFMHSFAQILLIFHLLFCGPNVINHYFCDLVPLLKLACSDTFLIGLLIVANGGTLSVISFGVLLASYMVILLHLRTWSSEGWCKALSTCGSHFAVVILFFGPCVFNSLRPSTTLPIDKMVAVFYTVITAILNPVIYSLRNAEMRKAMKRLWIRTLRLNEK
Nature of the assay: Ca-imaging of OR4X2-transfected HEK293 cells. Particulars: for Number of cell responses, Experiment (OR4X2): odorant 200 μM, approximately 2000 transfected cells in three times of measuring (Table 4, FIG. 5); for Response of OR4X2 to odorant, in words: single odorants 200 μM. Details: key to OR4X2 responded to odorant: ▪: 18 olfactory receptors responded to 32 odorants in related with specific anosmia. The method, then: as §1, §2, §3, §4, §5, §6, §7

The mark [7] stands for this setting: Ca-imaging, HEK293 cells, individual odorant 200 μM, significant response p<0.05.
[8] abbreviates: Ca-imaging, single odorants 200 μM.

With `CC(C)(CO)Cc1ccccc1` [Muguet alcohol, Muguetalcohol], the “OR8D2 responded to odorant” value in assay [1] (setting [7]) is “▪”. Also, the “Response of OR8D2 to odorant, in words” value in assay [1] (setting [8]) is listed as “significantly activated; also recorded: detected”. Moreover, the “Number of cell responses, Experiment (OR8D2)” value in assay [1] (odorant 200 μM, approximately 2000 transfected cells in three times of measuring (Table 4, FIG. 5)) was 21. For the same compound, the “Response of OR8B4 to odorant, in words” value in assay [2] (Ca-imaging) is listed as “activated”. The “OR10A6 responded to odorant” value in assay [3] is “▪”. For the same compound, the “Response of OR10A6 to odorant, in words” value in assay [3] (single odorants 200 μM) was “detected”. The “Number of cell responses, Control” value in assay [4] was 0.
On to `Cc1occc(=O)c1O` [3-Hydroxy-2-Methyl-4-Pyran, 3-Hydroxy-2-Methyl-4-Pyran-4-one], for which the “OR1B1 responded to odorant” value in assay [5] (setting [7]) is reported as “▪”. For the same compound, in assay [5] (setting [8]), the “Response of OR1B1 to odorant, in words” value is listed as “significantly (P<0.05) activated”. The entries for the “Number of cell responses, Experiment (OR1B1)” value in assay [5] (listed as 3-Hydroxy-2-methyl-4-pyranone) and in assay [5] (listed as 3-hydroxy-2-methyl-4-pyrane) were 35 and 9, respectively. Besides, the “Number of cell responses, Control” value in assay [4] turned out to be 5.
For the compound `CCCCCC=O` [Aldehyde C6, Aldehyd C6], in assay [6], the “Number of cell responses, Experiment (OR4X2)” value is given as 8. The “OR8B4 responded to odorant” value in assay [2] (setting [7]) was “▪”. In assay [2] (Ca-imaging), the “Response of OR8B4 to odorant, in words” value was “responded significantly”. For the same compound, in assay [2] (odorant 200 μM, approximately 2000 transfected cells in three times of measuring (FIG. 5)), the “Number of cell responses (OR8B4)” value amounted to 8. Also, in assay [4], the “Number of cell responses, Control” value is given as 0.
`OC/C=C/c1ccccc1` [Cinamyl alcohol, Cinamylalcohol]: the “OR10A6 responded to odorant” value in assay [3] is “▪”.
Regarding `NCC(=O)c1ccccc1` [2-aminoacetophenon, 2-Aminoacetophenone], the “OR4X2 responded to odorant” value in assay [6] (setting [7]) was “▪”. The “Response of OR4X2 to odorant, in words” value in assay [6] (Ca-imaging) is on record as “could be the receptor”; in assay [6] (Ca-imaging, listed as 2-aminoacetophenone) it was “responded”. Besides, the “Number of cell responses, Experiment (OR4X2)” value in assay [6] was determined as 20.
